Measurements taken from patent US10092537B2, “Use for PAI-1 inhibitor” (RENASCIENCE CO., LTD., priority 2013, dated 2018).

Target: human PAI-1 (Homo sapiens, UniProt P05121)
Test: Measurement of PAI-1 inhibitory activity of compound group 1 (t-PA, Spectrozyme t-PA chromogenic substrate)
Details: read-out: PAI-1 activity %

Sequence of human PAI-1 (P05121 24-402): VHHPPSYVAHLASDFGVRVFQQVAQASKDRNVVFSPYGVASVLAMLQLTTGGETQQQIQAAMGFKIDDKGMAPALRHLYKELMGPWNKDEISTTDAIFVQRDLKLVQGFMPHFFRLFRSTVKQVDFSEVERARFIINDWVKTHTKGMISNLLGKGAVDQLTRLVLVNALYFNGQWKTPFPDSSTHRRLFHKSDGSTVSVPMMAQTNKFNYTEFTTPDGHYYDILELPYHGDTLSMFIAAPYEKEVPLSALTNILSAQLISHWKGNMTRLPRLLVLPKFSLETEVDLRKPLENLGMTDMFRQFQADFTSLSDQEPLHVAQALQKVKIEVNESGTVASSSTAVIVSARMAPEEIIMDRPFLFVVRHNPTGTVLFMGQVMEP

| activity at 2.5 µM [%] | activity at 10 µM [%] | Structure (SMILES) |
| --- | --- | --- |
| 87.3 | 3 | O=C(COc1cccc(-c2ccoc2)c1)Nc1ccc(Br)cc1C(=O)O [Example 15, 5-bromo-2-({[3-(furan-3-yl)phenoxy]acetyl}amino)benzoic acid] |
| 77.4 | 21.9 | CC(C)(C)c1cccc(OCC(=O)Nc2ccc(Cl)cc2C(=O)O)c1 [Example 16, 2-{[(3-tert-butylphenoxy)acetyl]amino}-5-chlorobenzoic acid] |
| 52.8 | 0.8 | O=C(COc1ccccc1C1CCCCC1)Nc1ccc(Cl)cc1C(=O)O [Example 17, 5-chloro-2-{[(2-cyclohexylphenoxy)acetyl]amino}benzoic acid] |
| 81.4 | 16.1 | CC(C)(C)c1ccc(OCC(=O)Nc2ccc(Cl)cc2C(=O)O)cc1 [Example 18, 2-{[(4-tert-butylphenoxy)acetyl]amino}-5-chlorobenzoic acid] |
| 72.4 | 2.5 | O=C(COc1ccc(-c2ccccc2)cc1)Nc1ccc(Cl)cc1C(=O)O [Example 19, 2-{[(biphenyl-4-yloxy)acetyl]amino}-5-chlorobenzoic acid] |
| 55.7 | 1.9 | O=C(COc1cccc(-c2ccccc2)c1)Nc1ccc(Cl)cc1C(=O)O [Example 20, 2-{[(biphenyl-3-yloxy)acetyl]amino}-5-chlorobenzoic acid] |
| 10 | 0.3 | O=C(COc1ccc(C23CC4CC(CC(C4)C2)C3)cc1)Nc1ccc(Cl)cc1C(=O)O [Example 21, 2-({[4-(adamantan-1-yl)phenoxy]acetyl}amino)-5-chlorobenzoic acid] |
| 29.9 | 0.4 | O=C(COc1cccc(-c2ccoc2)c1)Nc1ccc(-c2ccccc2)cc1C(=O)O [Example 22, 4-({[3-(furan-3-yl)phenoxy]acetyl}amino)biphenyl-3-carboxylic acid] |
| 97.3 | 1.8 | Cn1c(C(=O)Nc2ccc(Cl)cc2C(=O)O)cc2cc(Br)ccc21 [Example 23, 2-{[(5-bromo-1-methyl-1H-indol-2-yl)carbonyl]amino}-5-chlorobenzoic acid] |
| 102 | 19.1 | O=C(Cn1ccc2cc(Br)ccc21)Nc1ccc(Cl)cc1C(=O)O [Example 24, 2-{[(5-bromo-1H-indol-1-yl)acetyl]amino}-5-chlorobenzoic acid] |
| 85.8 | 0 | O=C(COc1cccc(C2=CCCCC2)c1)Nc1ccc(Cl)cc1C(=O)O [Example 25, 5-chloro-2-({[3-(cyclohex-1-en-1-yl)phenoxy]acetyl}amino)benzoic acid] |
| 98 | 0.6 | O=C(COc1cccc(C2CCCCC2)c1)Nc1ccc(Cl)cc1C(=O)O [Example 26, 5-chloro-2-{[(3-cyclohexylphenoxy)acetyl]amino}benzoic acid] |
| 69.1 | 0.7 | Cc1cccc(-c2ccc(NC(=O)COc3cccc(-c4ccoc4)c3)c(C(=O)O)c2)c1 [Example 27, 4-({[3-(furan-3-yl)phenoxy]acetyl}amino)-3′-methylbiphenyl-3-carboxylic acid] |
| 33.6 | 0.5 | Cc1cc(C)cc(-c2ccc(NC(=O)COc3cccc(-c4ccoc4)c3)c(C(=O)O)c2)c1 [Example 28, 4-({[3-(furan-3-yl)phenoxy]acetyl}amino)-3′,5′-dimethylbiphenyl-3-carboxylic acid] |
| 93.2 | 24.3 | O=C(COc1ccc(-c2ccoc2)cc1)Nc1ccc(Cl)cc1C(=O)O [Example 29, 5-chloro-2-({[4-(furan-3-yl)phenoxy]acetyl}amino)benzoic acid] |
| 19.3 | 1.3 | O=C(COc1cccc(C23CC4CC(CC(C4)C2)C3)c1)Nc1ccc(Cl)cc1C(=O)O [Example 30, 2-({[3-(adamantan-1-yl)phenoxy]acetyl}amino)-5-chlorobenzoic acid] |
| 88 | 20.2 | O=C(O)c1cc(Cl)ccc1NC(=O)C1CCCN(C(=O)c2cccc(-c3ccccc3)c2)C1 (stereo not drawn) [Example 31, 2-({[1-(biphenyl-3-ylcarbonyl)piperidin-3-yl]carbonyl}amino)-5-chlorobenzoic acid] |
| 94.4 | 1.7 | Cc1ccc(-c2cccc(C(=O)Nc3ccc(Cl)cc3C(=O)O)c2)cc1 [Example 32, 5-chloro-2-{[(4′-methylbiphenyl-3-yl)carbonyl]amino}benzoic acid] |
| 92.8 | 21.6 | COc1ccccc1-c1cccc(C(=O)Nc2ccc(Cl)cc2C(=O)O)c1 [Example 33, 5-chloro-2-{[(2′-methoxybiphenyl-3-yl)carbonyl]amino}benzoic acid] |
| 97.1 | 45.1 | O=C(Nc1ccc(Cl)cc1C(=O)O)c1ccc(C2=CCOCC2)cc1 [Example 34, 5-chloro-2-({[4-(3,6-dihydro-2H-pyran-4-yl)phenyl]carbonyl}amino)benzoic acid] |

| activity at 2.5 µM [%] | activity at 10 µM [%] | Structure (SMILES) |
| --- | --- | --- |
| 98.8 | 15.6 | O=C(O)c1cc(Cl)ccc1NC(=O)C1(c2cccc(-c3ccoc3)c2)CC1 [Example 35, 5-chloro-2-[({1-[3-(furan-3-yl)phenyl]cyclopropyl}carbonyl)amino]benzoic acid] |
| 95.7 | 3.7 | O=C(CCc1cccc(-c2ccoc2)c1)Nc1ccc(Cl)cc1C(=O)O [Example 36, 5-chloro-2-({3-[3-(furan-3-yl)phenyl]propanoyl}amino)benzoic acid] |
| 53.1 | 5.9 | CC(C)(C(=O)Nc1ccc(Cl)cc1C(=O)O)c1cccc(-c2ccoc2)c1 [Example 37, 5-chloro-2-({2-[3-(furan-3-yl)phenyl]-2-methylpropanoyl}amino)benzoic acid] |
| 94.8 | 2.5 | O=C(O)c1cc(Cl)ccc1NC(=O)c1cccc2c1Cc1ccccc1-2 [Example 38, 5-chloro-2-[(9H-fluoren-1-ylcarbonyl)amino]benzoic acid] |
| 19.3 | 1.7 | O=C(Nc1ccc(Cl)cc1C(=O)O)c1ccc(C23CC4CC(CC(C4)C2)C3)cc1 [Example 40, 2-({[4-(adamantan-1-yl)phenyl]carbonyl}amino)-5-chlorobenzoic acid] |
| 72.4 | 12.9 | O=C(CC(c1ccccc1)c1ccccc1)Nc1ccc(Cl)cc1C(=O)O [Example 41, 5-chloro-2-[(3,3-diphenylpropanoyl)amino]benzoic acid] |
| 98.6 | 3.8 | O=C(Nc1ccc(Cl)cc1C(=O)O)c1ccc(Oc2ccccc2)cc1 [Example 42, 5-chloro-2-{[(4-phenoxyphenyl)carbonyl]amino}benzoic acid] |
| 98.4 | 14.1 | O=C(Nc1ccc(Cl)cc1C(=O)O)c1cc(C(F)(F)F)cc(C(F)(F)F)c1 [Example 43, 2-({[3,5-bis(trifluoro-methyl)phenyl)carbonyl}amino)-5-chlorobenzoic acid] |
| 97.8 | 20.4 | CC(C)(Oc1cccc(-c2ccoc2)c1)C(=O)Nc1ccc(Cl)cc1C(=O)O [Example 44, 5-chloro-2-({2-[3-(furan-3-yl)phenoxy]-2-methylpropanoyl}amino)benzoic acid] |
| 9.7 | 0.6 | O=C(COc1ccc(C23CC4CC(CC(C4)C2)C3)cc1)Nc1ccc(-c2ccoc2)cc1C(=O)O [Example 47, 2-({[4-(adamantan-1-yl)phenoxy]acetyl}amino)-5-(furan-3-yl)benzoic acid] |
| 2.5 | 1.7 | Cn1c(C(=O)Nc2ccc(Cl)cc2C(=O)O)cc2cc(-c3ccccc3)ccc21 [Example 48, 5-chloro-2-{[(1-methyl-5-phenyl-1H-indol-2-yl)carbonyl]amino}benzoic acid] |
| 82.1 | 1.1 | Cc1ccc(-c2ccc(OCC(=O)Nc3ccc(Cl)cc3C(=O)O)cc2)cc1 [Example 49, 5-chloro-2-({[(4′-methylbiphenyl-4-yl)oxy]acetyl}amino)benzoic acid] |
| 58.9 | 0.1 | Cc1cc(C)cc(-c2ccc(OCC(=O)Nc3ccc(Cl)cc3C(=O)O)cc2)c1 [Example 50, 5-chloro-2-({[(3′,5′-dimethylbiphenyl-4-yl)oxy]acetyl}amino)benzoic acid] |
| 37.8 | 1.7 | O=C(Cn1ccc2cc(-c3ccccc3)ccc21)Nc1ccc(Cl)cc1C(=O)O [Example 51, 5-chloro-2-{[(5-phenyl-1H-indol-1-yl)acetyl]amino}benzoic acid] |
| 7.2 | 5.1 | O=C(Nc1ccc(Cl)cc1C(=O)O)c1ccc(OCC23CC4CC(CC(C4)C2)C3)cc1 [Example 52, 2-({[4-(adamantan-1-ylmethoxy)phenyl]carbonyl}amino)-5-chlorobenzoic acid] |
| 95.3 | 21.6 | O=C(COc1cccc(-c2ccco2)c1)Nc1ccc(Cl)cc1C(=O)O [Example 53, 5-chloro-2-({[3-(furan-2-yl)phenoxy]acetyl}amino)benzoic acid] |
| 94.4 | 15.5 | O=C(COc1ccc(-c2ccco2)cc1)Nc1ccc(Cl)cc1C(=O)O [Example 54, 5-chloro-2-({[4-(furan-2-yl)phenoxy]acetyl}amino)benzoic acid] |
| 29.8 | 1.1 | O=C(CCCOc1ccc(C23CC4CC(CC(C4)C2)C3)cc1)Nc1ccc(Cl)cc1C(=O)O [Example 55, 2-({4-[4-(adamantan-1-yl)phenoxy]butanoyl}amino)-5-chlorobenzoic acid] |
| 75.8 | 0.7 | O=C(Nc1ccc(Cl)cc1C(=O)O)c1ccc(C(=O)C23CC4CC(CC(C4)C2)C3)cc1 [Example 56, 2-({[4-(adamantan-1-ylcarbonyl)phenyl]carbonyl}amino)-5-chlorobenzoic acid] |
